Key:
[1] = test system: K562 cells (human chronic myelogenous leukaemia); experiment: MTT cytotoxicity test, K562 cells; format: cell-based; conditions: for toxicity to K562 cells (in words): 48 hours of incubation; for IC50: Homo sapiens, MTT, 48h incubation
Description: (§1) A number of halogen derivatives of benzo[b]furans were tested for cytotoxic properties against four cell lines. The tests were conducted by means of MTT where yellow tetrazole salt was processed by the dehydrogenases in mitochondria of live cells into violet formazan, in cell lines mentioned below: • HeLa cells (uterine cervix cancer); • HL60 cells (human acute myelogenous leukaemia); • K562 cells (human chronic myelogenous leukaemia), and • HUVEC cells (normal human endothelial cells). • 1. HeLa, K562, HL 60, and HUVEC cells, 7 thousand cells per well (in 200 µl of the medium) were disseminated on 96-well plates. Cells were incubated overnight in the incubator (37°C, 5% CO2). • 2. Test compounds were dissolved in DMSO; 2µL solution amounts were added to the cells. Final concentrations of the culture: 1mM, 10µM, 100nM, 1nM. Control: DMSO-containing cells, final concentration of which amounted to 1% in the culture. • 3. Cytotoxicity test (MTT) of test compounds after 48h incubation. After 48h incubation of HeLa, K562, HL60, or HUVEC cells with test compounds, 25 µl of MTT per well added (input concentration = 5mg/ml) to the mixture. MTT, yellow tetrazole salt was reduced to violet formazan by mitochondrial dehydrogenases of live cells; the volume of formazan was measured spectrophotometrically. After 2h incubation of cells with MTT in the incubator (37°C; 5% CO2), cells were lysed in lysing buffer containing SDS and DMF (95 µl/well). The lysis was conducted overnight at 37°C and with 5% CO2. • 4. MTT results were taken from FLUOstar Omega reader (wavelengths: 570 and 650 nm). Absorbance measured at 570 nm was proportional to the number of live cells. The plates were analysed by reading out the absorbance values at 570 nm and 650 nm wavelengths. The values of IC50 (concentration of compound producing a 50% cell mortality) was taken from the diagram by means of interpolation for a 50% cell survival rate.

[2] = test system: HL60 cells (human acute myelogenous leukaemia); experiment: MTT cytotoxicity test, HL60 cells; format: cell-based; conditions: for toxicity to HL60 cells (in words): 48 hours of incubation; for IC50: Homo sapiens, HL-60, MTT, 48h incubation
Description: as §1

[3] = test system: HUVEC cells (normal human endothelial cells); experiment: MTT cytotoxicity test, normal HUVEC cells; format: cell-based; conditions: for toxicity to normal HUVEC cells (in words): 48 hours of incubation; for IC50: Homo sapiens, MTT, 48h incubation
Description: as §1

[4] = test system: HeLa cells (uterine cervix cancer); experiment: MTT cytotoxicity test, HeLa cells; format: cell-based; conditions: for toxicity to HeLa cells (in words): 48 hours of incubation; for IC50: Homo sapiens, MTT, 48h incubation
Description: as §1

[5] = test system: K562 cells (human chronic myelogenous leukaemia); conditions: comparison value for cis-platinum; cited from earlier work
caspase 3 and 7 = experiment: Apo-ONE Homogeneous Caspase-3/7 Assay in K562 cells; format: cell-based, human
Description: The above mentioned toxicity of compound 1a was tested for its origin, i.e. induction of necrosis or apoptosis in the K562 cells of chronic myelogenous leukaemia. Accordingly: • K562 cells in RPMI 1640 medium containing a 10% calf foetal serum and antibiotics, were disseminated on a 96-well plate, in the amount of 20 x 10^3 cells per well. Cells were cultured for 24 hours in the incubator (5% CO2; 37°C). • Compound 1a was dissolved in DMSO and added to the cell medium; final concentration in the cell culture was 25 μM (5 x IC50). Negative control was established by means of cells cultured in the presence of DMSO at the concentration of 1%. Positive control was established by means of cells cultured in the presence of 1 μM staurosporin, a strong apoptosis inductor. The cells were incubated with the compounds for 18 hours in the incubator (5% CO2; 37°C). • The test to determine the activity of […] […] Due to proteolytic activity of caspases, the pro-fluorescent substrate was transformed into a fluorescent product the amount of which could be determined by means of fluorescence intensity measurement. • Fluorescence intensity in each well was measured on the plate by means of FLUOStar Omega (BMG-Labtech, Germany) plate reader, at the exciting light wavelength of 485 nm and emission of 520 nm. Fluorescence intensity was proportional to the activity of caspase 3 and 7 in the sample.

SMILES	toxicity to K562 cells (in words) [1]	IC50 [1] [µM]	toxicity to HL60 cells (in words) [2]	IC50 [2] [µM]	toxicity to normal HUVEC cells (in words) [3]	IC50 [3] [µM]	toxicity to HeLa cells (in words) [4]	IC50 [4] [µM]	IC50 value against K562 cells [5]	activity of caspase 3 and 7 (caspase 3 and 7; 25 µM, 18 hours incubation, compared with reference cells (K562 and K562+DMSO), Fig. 1)	activity of caspases 3 and 7 (caspase 3 and 7; 1a concentration = 25 µM, incubation time = 24h)
COC(=O)c1c(C)oc2cc(C(=O)C(Br)Br)c(OC)cc12 [Compound 1c]	toxic	1	toxic	4	not toxic	> 1000	toxic	1	–	–	–
COC(=O)c1c(C)oc2cc(C(=O)C(Cl)Cl)c(O)c(Cl)c12 [Compound 1e]	not toxic	> 1000	specifically toxic	3	not toxic	> 1000	specifically toxic	10	–	–	–
COC(=O)c1c(C)oc2cc(C(=O)C(Br)Br)c(O)c(Br)c12 [Compound 1b]	toxic	1	toxic	4	not toxic	> 1000	toxic	9	–	–	–
N.N.[Cl][Pt][Cl] [cis-platinum]	–	–	–	–	–	–	–	–	several to several dozens	–	–
COc1cc2c(CBr)c(C(C)=O)oc2c(C(C)=O)c1OC [Compound 1a, 1,1'-[3-(bromomethyl)-5,6-dimethoxy-1-benzofuran-2,7-diyl] diethanon]	Strong toxicity	5	Strong toxicity	0.1	not toxic	> 1000	toxic to neither	> 1000	–	higher	increased
